Reference: publication PMC11560554 (Chembiochem : a European journal of chemical biology, 2024)

Molecular target: T1, human macrophage galactose-type lectin (hMGL) (Homo sapiens, UniProt Q8IUN9)
T1 sequence (Q8IUN9 1-316): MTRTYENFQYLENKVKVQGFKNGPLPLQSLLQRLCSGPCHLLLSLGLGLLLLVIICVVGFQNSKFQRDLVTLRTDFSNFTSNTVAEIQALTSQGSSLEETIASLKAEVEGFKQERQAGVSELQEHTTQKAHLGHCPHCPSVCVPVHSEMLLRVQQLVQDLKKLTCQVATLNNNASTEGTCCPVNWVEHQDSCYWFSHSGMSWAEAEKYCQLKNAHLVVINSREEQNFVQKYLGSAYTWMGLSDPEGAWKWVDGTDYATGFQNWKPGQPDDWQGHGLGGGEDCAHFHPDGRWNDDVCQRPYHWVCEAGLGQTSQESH
Assay: ITC analysis of binding of GalNAc and MUC1

[1] = 10 mM HEPES sodium salt, 50 mM NaCl, 2 mM CaCl2, pH 7.4, 298 K, one-site model

- KA [1]: 68000 M⁻¹
- ΔG [1]: -6.59 kcal/mol
- −TΔS [1]: 4.97 kcal/mol
- n (stoichiometry) (complete saturation of hMGL, functional valency = 1/n, pH 7.4, 298 K): 0.99
Compound: CC(=O)N[C@H]1C(O)O[C@H](CO)[C@H](O)[C@@H]1O (mixture of isomers) [GalNAc, N-acetylgalactosamine]
